Results published in patent US6444832B1, “Amino alcohol derivatives, method of producing said derivatives and medicaments containing them” (priority 1995, dated 2002).

tested on: primary osteoblastic cells of foetal rat calvariae; test: DNA synthesis assay in primary cultures of osteoblasts from fetal rat calvariae (3H-thymidine incorporation); type: cell-based; details: 1 μg/ml; 24 hours incubation, methyl-3H-thymidine during the last 3 hours; medium containing BSA control = 100%
Experimental: Compounds of formula (I) were examined in a DNA synthesis assay in primary cultures of osteoblasts from fetal rat calvariae. The experiments were carried out in accordance with Pfeilschifter et al., Endocrinology 126, 703 (1990).
Primary osteoblasts were isolated from foetal rat calvariae by sequential digestion with collagenase. In this process 5 cell fractions were obtained. A pool from the cell fractions 3-5 were cultured in vitro. The cells were cultured in an incubator at a relative air humidity of 95%, a CO2 content of 5% and a temperature of 37° C. The test substances were examined in the cultures of the first, second or third cell passage. For the examinations the cells were sown at a cell count of 7×10^3 cells (in 100 μl culture medium)/well in microtitre plates at least 76 hours before applying the test substances. MEM Dulbecco (plus 4.5 g/l glucose plus 3.7 g/l NaHCO3 without glutamine) was used as the culture medium to which 5% foetal calf serum (FCS) and […] penicillin/streptomycin had been added. Immediately before addition of the test substances to the cell culture the medium was replaced by 150 μl medium which contained 1 mg/ml bovine serum albumin (BSA) instead of FCS. Test substances were added at the desired concentrations to the medium containing BSA. TGFβ1 (transforming growth factor β1) at concentrations of 0.1-0.2 ng/ml were also examined as a positive control. Three determinations were carried out per (positive) control or substance concentration. The cell cultures were incubated for 24 hours with test substances, a thymidine probe (1 μCi methyl-^3H-thymidine in 20 μl PBS solution) being additionally present during the last 3 hours. At the end of the incubation period the cell cultures were washed three times with 0.9% saline solution and subsequently admixed with 100 μl liquid scintillator each time (OptiPhase Supermix TM®). Afterwards the radioactivity incorporated into the DNA was measured in cpm in a liquid scintillation counter (1450 MicroBeta®). Cell cultures which had only received medium containing BSA served as controls (100%).

SMILES | Rate of DNA synthesis of primary osteoblastic cells of foetal rat calvariae in percent compared to the control (=100%) [%]
CC/C=C\C/C=C\C/C=C\CCCCCCCC(=O)N[C@@H](CO)CCCC (stereo in doubt) [Example 9] | 367
CCCCC/C=C\C/C=C\CCCCCCCC(=O)N[C@@H](CO)CCCC (stereo in doubt) [Example 10] | 475
CCCCC/C=C\C/C=C\CCCCCCCC(=O)N[C@H](CC)CO (stereo in doubt) [Example 27] | 252
CCCCCC/C=C\CCCCCCCC(=O)NC(CO)CCCC (stereo not drawn) [Example 11] | 191
CCCC/C=C\CCCCCCCC(=O)NC(CO)CCCC (stereo not drawn) [Example 19] | 298
CCCCCCCCC#CCCCCCCCC(=O)NC(CO)CCCC (stereo not drawn) [Example 20] | 250
CCCCCCCC/C=C/CCCCCCCC(=O)NC(CO)CCCC (stereo not drawn) [Example 21] | 188
CCCCC/C=C\C/C=C\CCCCCCCC(=O)NC(CO)CCCC (stereo not drawn) [Example 24] | 223
CCCCCCCC/C=C\CCCCCCCC(=O)NC(CO)CCCC (stereo not drawn) [Example 26] | 296
